Source: patent US8916702B2 (priority 2012, dated 2014)
pEC50: −log10 of the molar value. Where two headings read alike, the source gives them in different places.

System: HCV pseudoparticles (genotype 1a HCV E1 and E2 envelope, H77C isolate)
Assay: microbe, parasite or virus in culture
Assay type: cell-based
Conditions: Hepatitis C virus
[1] = Huh-7, 48 h, read-out: Activity (EC50 class), HCV pseudoparticle infection of Huh7 cells, luciferase 2 days after infection, EC50 expressed as class A/B
[2] = Huh-7, 48 h, read-out: Activity (EC50 class), HCV pseudoparticles, Huh7 cells, luciferase 2 days after infection, average of duplicates
[3] = Huh-7, 48 h, HCV pseudoparticles (genotype 1a, H77C) in Huh7 cells, average of duplicate, luciferase 2 days after infection
[4] = Huh-7, read-out: Activity (EC50 class), HCV pseudoparticles (genotype 1a, H77C) in Huh7 cells, EC50 expressed as class A/B
[5] = Huh-7, 48 h, HCV pseudoparticle infection of Huh7 cells, luciferase 2 days after infection, average of duplicates

| SMILES | pEC50 [1] | pEC50 [4] | also measured |
| --- | --- | --- | --- |
| O=C(NCC[C@H](NC(=O)c1ccc(Nc2nc(NC3(c4ccc(Cl)cc4)CC3)nc(OCC(F)(F)F)n2)cc1)C(=O)O)C(=O)NC1CCCCC1 [Compound 1179] | 8.00 to 11.00 |  |  |
| COC(=O)[C@H](CCNC(=O)C(=O)NCc1ccccc1OC)NC(=O)c1ccc(Nc2nc(NC3(c4ccc(Cl)cc4)CC3)nc(OCC(F)(F)F)n2)cc1 [Compound 1155] | 8.00 to 11.00 |  |  |
| COC(=O)[C@H](CNC(=O)C(=O)Nn1cnnc1)NC(=O)c1ccc(Nc2nc(NC3(c4ccc(Cl)cc4)CC3)nc(OCC(F)(F)F)n2)cc1 [Compound 1243] | 6.00 to 8.00 |  |  |
| CC(C)(CNC(=O)C(=O)Nc1cccc(C(=O)Nc2ccccc2)c1)CNC(=O)c1ccc(Nc2nc(NC3(c4ccc(Cl)cc4)CC3)nc(OCC(F)(F)F)n2)cc1 [Compound 3669] |  |  | pEC50 [2]: 8.00 to 11.00 |
| O=C(Nc1ccc(F)cc1)C(=O)N(CCO)CCCNC(=O)c1ccc(Nc2nc(NC3(c4ccc(Cl)cc4)CC3)nc(OCC(F)(F)F)n2)cc1 [Compound 3499] |  | 8.00 to 11.00 | pEC50 [3]: 9.34 |
| CC(C)(C)c1cccc(NC(=O)C(=O)NCC[C@H](NC(=O)c2ccc(Nc3nc(NC4(c5ccc(Cl)cc5)CC4)nc(OCC(F)(F)F)n3)cc2)C(=O)O)c1 [Compound 3629] |  |  | pEC50 [2]: 8.00 to 11.00 |
| COC(=O)[C@H](CCNC(=O)C(=O)NCc1ccc(OC)c(OC)c1)NC(=O)c1ccc(Nc2nc(NC3(c4ccc(Cl)cc4)CC3)nc(OCC(F)(F)F)n2)cc1 [Compound 1144] | 8.00 to 11.00 |  |  |
| COC(=O)[C@H](CNC(=O)C(=O)NCCc1cccnc1)NC(=O)c1ccc(Nc2nc(NC3(c4ccc(Cl)cc4)CC3)nc(OCC(F)(F)F)n2)cc1 [Compound 1293] | 8.00 to 11.00 |  | pEC50 [5]: 8.36 |
| O=C(NCC[C@H](NC(=O)c1ccc(Nc2nc(NC3(c4ccc(Cl)cc4)CC3)nc(OCC(F)(F)F)n2)cc1)C(=O)O)C(=O)NCC1(C(=O)O)CC1 [Compound 1447] | 6.00 to 8.00 |  | pEC50 [5]: 7.01 |
| CC(C)(CNC(=O)C(=O)NCc1ccccc1Cl)CNC(=O)c1ccc(Nc2nc(NC3(c4ccc(Cl)cc4)CC3)nc(OCC(F)(F)F)n2)cc1 [Compound 3003] |  | 8.00 to 11.00 |  |
| O=C(NC[C@H](NC(=O)c1ccc(Nc2nc(NC3(c4ccc(Cl)cc4)CC3)nc(OCC(F)(F)F)n2)cc1)C(=O)Cl)C(=O)Nc1cccc(Oc2ccccn2)c1 [Compound 3781] |  |  | pEC50 [2]: 8.00 to 11.00 |
| COC(=O)[C@H](CNC(=O)C(=O)Nc1ccc(OCCN2CCCCC2)nc1)NC(=O)c1ccc(Nc2nc(NC3(c4ccc(Cl)cc4)CC3)nc(OCC(F)(F)F)n2)cc1 [Compound 3736] |  |  | pEC50 [2]: 8.00 to 11.00 |
| O=C(Cc1ccc(F)cc1F)C(=O)NCC(O)CNC(=O)c1ccc(Nc2nc(NC3(c4ccc(Cl)cc4)CC3)nc(OCC(F)(F)F)n2)cc1 (centres unmarked) [Compound 3459] |  | 8.00 to 11.00 |  |
| COC(=O)[C@H](CNC(=O)C(=O)Nc1ccc(-n2ccc(C(F)(F)F)n2)cc1)NC(=O)c1ccc(Nc2nc(NC3(c4ccc(Cl)cc4)CC3)nc(OCC(F)(F)F)n2)cc1 [Compound 3098] |  | 8.00 to 11.00 |  |
| COC(=O)[C@H](CCNC(=O)C(=O)NCCc1ccc(F)cc1)NC(=O)c1ccc(Nc2nc(NC3(c4ccc(Cl)cc4)CC3)nc(OCC(F)(F)F)n2)cc1 [Compound 1315] | 8.00 to 11.00 |  | pEC50 [5]: 8.99 |
| CCOCCOc1ccc(NC(=O)C(=O)NCC[C@H](NC(=O)c2ccc(Nc3nc(NC4(c5ccc(Cl)cc5)CC4)nc(OCC(F)(F)F)n3)cc2)C(=O)OC)cc1 [Compound 3309] |  | 8.00 to 11.00 |  |
| Cc1ccc(NC(=O)C(=O)N(CCO)CCCNC(=O)c2ccc(Nc3nc(NC4(c5ccc(Cl)cc5)CC4)nc(OCC(F)(F)F)n3)cc2)cc1O [Compound 3506] |  | 8.00 to 11.00 | pEC50 [3]: 9.29 |
| Cc1nc(-c2cccc(NC(=O)C(=O)NC[C@H](NC(=O)c3ccc(Nc4nc(NC5(c6ccc(Cl)cc6)CC5)nc(OCC(F)(F)F)n4)cc3)C(=O)O)c2)cs1 [Compound 3773] |  |  | pEC50 [2]: 8.00 to 11.00 |
| O=C(NCC[C@H](NC(=O)c1ccc(Nc2nc(NC3(c4ccc(Cl)cc4)CC3)nc(OCC(F)(F)F)n2)cc1)C(=O)O)C(=O)Nc1ccc(N2CCCC2)nc1 [Compound 3645] |  |  | pEC50 [2]: 8.00 to 11.00 |
| COC(=O)[C@H](CNC(=O)C(=O)NC1(CC(C)C)CC1)NC(=O)c1ccc(Nc2nc(NC3(c4ccc(Cl)cc4)CC3)nc(OCC(F)(F)F)n2)cc1 [Compound 1058] | 8.00 to 11.00 |  | pEC50 [5]: 8.94 |
| CONC(=O)C(=O)NCC(C)(C)CNC(=O)c1ccc(Nc2nc(NC3(c4ccc(Cl)cc4)CC3)nc(OCC(F)(F)F)n2)cc1 [Compound 3002] |  | 8.00 to 11.00 | pEC50 [3]: 10.36 |
| O=C(NCCC(NC(=O)c1ccc(Nc2nc(NC3(c4ccc(Cl)cc4)CC3)nc(OCC(F)(F)F)n2)cc1)C(=O)O)C(=O)Nc1ccc(Oc2ccc(F)cc2)cc1 (centres unmarked) [Compound 3522] |  | 6.00 to 8.00 |  |
| O=C(NCC[C@H](NC(=O)c1ccc(Nc2nc(NC3(c4ccc(Cl)cc4)CC3)nc(OCC(F)(F)F)n2)cc1)C(=O)O)C(=O)NCc1cc(F)cc(F)c1 [Compound 1192] | 8.00 to 11.00 |  |  |
| CC(C)CNC(=O)C(=O)NCC(C)(C)CNC(=O)c1ccc(Nc2nc(NC3(c4ccc(Cl)cc4)CC3)nc(OCC(F)(F)F)n2)cc1 [Compound 1551] | 8.00 to 11.00 |  |  |

| SMILES | pEC50 [1] | pEC50 [4] | also measured |
| --- | --- | --- | --- |
| COc1ccc(C2(Nc3nc(Nc4ccc(C(=O)NCC(C)(C)CNC(=O)C(N)=O)cc4)nc(OCC(F)(F)F)n3)CC2)cc1C(F)(F)F [Compound 3351] |  | 8.00 to 11.00 |  |
| CC(C)n1ccc(NC(=O)C(=O)NCC(C)(C)CNC(=O)c2ccc(Nc3nc(NC4(c5ccc(Cl)cc5)CC4)nc(OCC(F)(F)F)n3)cc2)n1 [Compound 3836] |  |  | pEC50 [2]: 8.00 to 11.00 |
| O=C(NCc1cccnc1)C(=O)NC[C@@H](NC(=O)c1ccc(Nc2nc(NC3(c4ccc(Cl)cc4)CC3)nc(OCC(F)(F)F)n2)cc1)C(=O)O [Compound 1043] | 8.00 to 11.00 |  |  |
| O=C(Nc1nccs1)C(=O)N1CCCC(CNC(=O)c2ccc(Nc3nc(NC4(c5ccc(Cl)cc5)CC4)nc(OCC(F)(F)F)n3)cc2)C1 (centres unmarked) [Compound 3487] |  | 8.00 to 11.00 |  |
| COC(=O)[C@H](CNC(=O)C(=O)Nc1ccc(Oc2ccc(Cl)cc2Cl)nc1)NC(=O)c1ccc(Nc2nc(NC3(c4ccc(Cl)cc4)CC3)nc(OCC(F)(F)F)n2)cc1 [Compound 3697] |  |  | pEC50 [2]: 8.00 to 11.00 |
| O=C(NC[C@H](NC(=O)c1ccc(Nc2nc(NC3(c4ccc(Cl)cc4)CC3)nc(OCC(F)(F)F)n2)cc1)C(=O)O)C(=O)Nc1cccc(OC(F)(F)F)c1 [Compound 3749] |  |  | pEC50 [2]: 8.00 to 11.00 |
| COC(=O)[C@H](CNC(=O)C(=O)Nc1ccc(OCCc2ccccn2)cc1)NC(=O)c1ccc(Nc2nc(NC3(c4ccc(Cl)cc4)CC3)nc(OCC(F)(F)F)n2)cc1 [Compound 3198] |  | 8.00 to 11.00 | pEC50 [3]: 8.99 |
| C[C@]12C3C1[C@H]3C[C@@H]2NC(=O)C(=O)NCC[C@H](NC(=O)c1ccc(Nc2nc(NC3(c4ccc(Cl)cc4)CC3)nc(OCC(F)(F)F)n2)cc1)C(=O)O (some centres unmarked) [Compound 1117] | 8.00 to 11.00 |  |  |
| COC(=O)[C@H](CNC(=O)C(=O)NCCc1ccccn1)NC(=O)c1ccc(Nc2nc(NC3(c4ccc(Cl)cc4)CC3)nc(OCC(F)(F)F)n2)cc1 [Compound 1282] | 8.00 to 11.00 |  |  |
| COC(=O)[C@H](CNC(=O)C(=O)Nc1ccc(S(C)(=O)=O)cc1)NC(=O)c1ccc(Nc2nc(NC3(c4ccc(Cl)cc4)CC3)nc(OCC(F)(F)F)n2)cc1 [Compound 3105] |  | 8.00 to 11.00 |  |
| COC(=O)[C@H](CCNC(=O)C(=O)Nc1ccc(N2CC(C)OC(C)C2)cc1)NC(=O)c1ccc(Nc2nc(NC3(c4ccc(Cl)cc4)CC3)nc(OCC(F)(F)F)n2)cc1 (some centres unmarked) [Compound 3121] |  | 8.00 to 11.00 | pEC50 [3]: 8.47 |
| O=C(NCCCCNC(=O)c1ccc(Nc2nc(NC3(c4ccc(Cl)cc4)CC3)nc(OCC(F)(F)F)n2)cc1)C(=O)Nc1ccc(F)cc1F [Compound 3397] |  | 8.00 to 11.00 | pEC50 [3]: 10.09 |
| CC(C)(CNC(=O)C(=O)Nc1ccc(OC(F)(F)F)cc1)CNC(=O)c1ccc(Nc2nc(NC3(c4ccc(Cl)cc4)CC3)nc(OCC(F)(F)F)n2)cc1 [Compound 3145] |  | 8.00 to 11.00 |  |
| CC(C)(CNC(=O)C(=O)Nc1ccc(C(C)(C)C)cc1)CNC(=O)c1ccc(Nc2nc(NC3(c4ccc(Cl)cc4)CC3)nc(OCC(F)(F)F)n2)cc1 [Compound 1576] | 8.00 to 11.00 |  |  |
| O=C(NC[C@H](NC(=O)c1ccc(Nc2nc(NC3(c4ccc(Cl)cc4)CC3)nc(OCC(F)(F)F)n2)cc1)C(=O)O)C(=O)Nc1ccc(OC2CCOCC2)cc1 [Compound 3291] |  | 8.00 to 11.00 |  |
| COC(=O)[C@H](CCNC(=O)C(=O)Nc1ccc(Oc2ccc(F)cc2)cc1)NC(=O)c1ccc(Nc2nc(NC3(c4ccc(Cl)cc4)CC3)nc(OCC(F)(F)F)n2)cc1 [Compound 3301] |  | 8.00 to 11.00 |  |
| O=C(NCCc1ccccc1F)C(=O)NC[C@H](NC(=O)c1ccc(Nc2nc(NC3(c4ccc(Cl)cc4)CC3)nc(OCC(F)(F)F)n2)cc1)C(=O)O [Compound 1402] | 8.00 to 11.00 |  |  |
| CC1CCCC(NC(=O)C(=O)NC[C@H](NC(=O)c2ccc(Nc3nc(NC4(c5ccc(Cl)cc5)CC4)nc(OCC(F)(F)F)n3)cc2)C(=O)O)C1 (some centres unmarked) [Compound 1087] | 8.00 to 11.00 |  |  |
| CC(C)(CNC(=O)C(=O)Nc1cccc(-c2nn[nH]n2)c1)CNC(=O)c1ccc(Nc2nc(NC3(c4ccc(Cl)cc4)CC3)nc(OCC(F)(F)F)n2)cc1 [Compound 1489] | 8.00 to 11.00 |  |  |
| COc1ccccc1NC(=O)C(=O)NC[C@H](NC(=O)c1ccc(Nc2nc(NC3(c4ccc(Cl)cc4)CC3)nc(OCC(F)(F)F)n2)cc1)C(=O)O [Compound 1364] | 8.00 to 11.00 |  |  |
| O=C(NC/C(=N/C(=O)c1ccc(Nc2nc(NC3(c4ccc(Cl)cc4)CC3)nc(OCC(F)(F)F)n2)cc1)C(=O)O)C(=O)Nc1ccc(CCO)cc1 [Compound 3154] |  | 8.00 to 11.00 | pEC50 [3]: 8.84 |
| O=C(N[C@H](CCNC(=O)c1ccc(Nc2nc(NC3(c4ccc(Cl)cc4)CC3)nc(OCC(F)(F)F)n2)cc1)C(=O)O)C(=O)N1CCCCC1 [Compound 3504] |  | 8.00 to 11.00 |  |
| Cc1ccc(-c2ccc(NC(=O)C(=O)NCC(C)(C)CNC(=O)c3ccc(Nc4nc(NC5(c6ccc(Cl)cc6)CC5)nc(OCC(F)(F)F)n4)cc3)cc2)cc1 [Compound 1565] | 8.00 to 11.00 |  | pEC50 [5]: 9.89 |
